# What was measured:
# [1] = system: antibodies in sera from SARS patients (sera 1a, 1b, 2, 6, 37, 62, London, SARS-yellow, SARS-green); type: binding, human; parameters: Binding of serum 6 to linear peptides of protein X1 of SARS-CoV Urbani / Binding of serum 37 to linear peptides of protein X1 of SARS-CoV Urbani / Binding of serum 6 to looped/cyclic peptide (PEPSCAN-ELISA) / Binding of serum 37 to looped/cyclic peptide (PEPSCAN-ELISA) / Binding of serum 37 to looped/cyclic peptides of protein X1 of SARS-CoV Urbani / Binding of serum 6 to linear peptides of protein X2 / Binding of serum 37 to linear peptides of protein X2 / Binding of serum 37 to looped/cyclic peptides of protein X2 of SARS-CoV Urbani / Binding of serum 6 to linear peptides of protein M of SARS-CoV Urbani / Binding of serum 37 to linear peptides of protein M of SARS-CoV Urbani / Binding of serum 6 to looped/cyclic peptides of protein M of SARS-CoV Urbani / Binding of serum 37 to looped/cyclic peptides of protein M of SARS-CoV Urbani / Binding of serum 6 to linear peptides of protein X3 of SARS-CoV Urbani / Binding of serum 37 to linear peptides of protein X3 of SARS-CoV Urbani / Binding of serum 37 to looped/cyclic peptides of protein X3 of SARS-CoV Urbani / Binding of serum 6 to linear peptides of protein X4 of SARS-CoV Urbani / Binding of serum 37 to linear peptides of protein X4 of SARS-CoV Urbani / Binding of serum 37 to looped/cyclic peptides of protein X4 of SARS-CoV Urbani / Binding of serum 6 to linear peptides of protein X5 of SARS-CoV Urbani / Binding of serum 37 to linear peptides of protein X5 of SARS-CoV Urbani / Binding of serum 37 to looped/cyclic peptides of protein X5 of SARS-CoV Urbani / Binding of serum 6 to linear peptides of protein N of SARS-CoV Urbani / Binding of serum 37 to linear peptides of protein N of SARS-CoV Urbani / Binding of serum 6 to linear peptide (PEPSCAN-ELISA) / Binding of serum 1a to looped/cyclic peptides of protein N of SARS-CoV Urbani / Binding of serum 1b to looped/cyclic peptides of protein N of SARS-CoV Urbani / Binding of serum 2 to looped/cyclic peptides of protein N of SARS-CoV Urbani / Binding of serum 6 to looped/cyclic peptides of protein N of SARS-CoV Urbani / Binding of serum 37 to looped/cyclic peptides of protein N of SARS-CoV Urbani / Binding of serum 62 to looped/cyclic peptides of protein N of SARS-CoV Urbani / Binding of serum London to looped/cyclic peptides of protein N of SARS-CoV Urbani / Binding of serum SARS-green to looped/cyclic peptides of protein N of SARS-CoV Urbani: unit not given here
# [2] = system: rabbit serum obtained by immunizing a rabbit with the SARS-CoV strain Frankfurt 1; type: binding; parameters: Binding of a rabbit serum to linear peptides / Binding of a rabbit serum to looped peptides / Rabbit serum linear peptides / Rabbit serum looped peptides / Binding of a rabbit serum to linear peptides of protein N of SARS-CoV Urbani (Rabbit serum linear peptides) / Binding of a rabbit serum to looped/cyclic peptides of protein N of SARS-CoV Urbani (Rabbit serum looped peptides): unit not given here
# [3] = system: control sera (pooled serum of ten healthy LUMC hospital workers; commercial negative donor pooled serum from the Dutch bloodbank); type: binding, human; parameters: Binding of Control serum LUMC to linear peptides / Binding of Control serum Blood-bank to linear peptides / Binding of Control serum LUMC to looped peptides / Binding of Control Serum Blood-Bank to Looped peptides / Binding of Control serum LUMC to linear peptides of the protein M of SARS-CoV Urbani / Binding of Control serum Blood-bank to linear peptides of the protein M of SARS-CoV Urbani / Binding of Control serum LUMC to looped peptides of the protein M of SARS-CoV Urbani / Binding of Control Serum Blood-Bank to Looped peptides of the protein M of SARS-CoV Urbani: unit not given here
sequence,measurement,setting,value
ELKQLLEQWNLVIGF,Binding of serum 1a to linear peptides of protein M of SARS-CoV Urbani,[1],0.8
same,Binding of serum 1a to looped/cyclic peptides of protein M of SARS-CoV Urbani,[1],0.6
same,Binding of serum 1b to linear peptides of protein M of SARS-CoV Urbani,[1],0.8
same,Binding of serum 1b to looped/cyclic peptides of protein M of SARS-CoV Urbani,[1],0.6
same,Binding of serum 2 to linear peptides of protein M of SARS-CoV Urbani,[1],0.5
same,Binding of serum 2 to looped/cyclic peptides of protein M of SARS-CoV Urbani,[1],0.5
same,Binding of serum 6 to linear peptides of protein M of SARS-CoV Urbani,[1],0.6
same,Binding of serum 6 to looped/cyclic peptides of protein M of SARS-CoV Urbani,[1],0.8
same,Binding of serum 37 to linear peptides of protein M of SARS-CoV Urbani,[1],0.6
same,Binding of serum 37 to looped/cyclic peptides of protein M of SARS-CoV Urbani,[1],0.7
same,Binding of serum 62 to linear peptides of protein M of SARS-CoV Urbani,[1],0.5
same,Binding of serum 62 to looped/cyclic peptides of protein M of SARS-CoV Urbani,[1],0.5
same,Binding of serum London to linear peptides of protein M of SARS-CoV Urbani,[1],0.6
same,Binding of serum London to looped/cyclic peptides of protein M of SARS-CoV Urbani,[1],0.3
same,Binding of serum SARS-green to linear peptides of protein M of SARS-CoV Urbani,[1],0.5
same,Binding of serum SARS-green to looped/cyclic peptides of protein M of SARS-CoV Urbani,[1],0.7
same,Binding of serum SARS-yellow to linear peptides of protein M of SARS-CoV Urbani,[1],0.3
same,Binding of serum SARS-yellow to looped/cyclic peptides of protein M of SARS-CoV Urbani,[1],0.9
same,Rabbit serum linear peptides,[2],0.0
same,Rabbit serum looped peptides,[2],0.2
same,Binding of Control Serum Blood-Bank to Looped peptides of the protein M of SARS-CoV Urbani,[3],0.6
same,Binding of Control serum Blood-bank to linear peptides of the protein M of SARS-CoV Urbani,[3],0.8
same,Binding of Control serum LUMC to linear peptides of the protein M of SARS-CoV Urbani,[3],0.7
same,Binding of Control serum LUMC to looped peptides of the protein M of SARS-CoV Urbani,[3],0.7
ELYSPLFLIVAALVF,Binding of serum 1a to linear peptides of protein X4 of SARS-CoV Urbani,[1],0.7
same,Binding of serum 1a to looped/cyclic peptides of protein X4 of SARS-CoV Urbani,[1],0.6
same,Binding of serum 1b to linear peptides of protein X4 of SARS-CoV Urbani,[1],0.4
same,Binding of serum 1b to looped/cyclic peptides of protein X4 of SARS-CoV Urbani,[1],0.4
same,Binding of serum 2 to linear peptides of protein X4 of SARS-CoV Urbani,[1],0.4
same,Binding of serum 2 to looped/cyclic peptides of protein X4 of SARS-CoV Urbani,[1],0.6
same,Binding of serum 6 to linear peptides of protein X4 of SARS-CoV Urbani,[1],0.4
same,Binding of serum 6 to looped/cyclic peptides of protein X4 of SARS-CoV Urbani,[1],0.4
same,Binding of serum 37 to linear peptides of protein X4 of SARS-CoV Urbani,[1],0.6
same,Binding of serum 37 to looped/cyclic peptides of protein X4 of SARS-CoV Urbani,[1],0.6
same,Binding of serum 62 to linear peptides of protein X4 of SARS-CoV Urbani,[1],0.6
same,Binding of serum 62 to looped/cyclic peptides of protein X4 of SARS-CoV Urbani,[1],0.6
same,Binding of serum London to linear peptides of protein X4 of SARS-CoV Urbani,[1],0.5
same,Binding of serum London to looped/cyclic peptides of protein X4 of SARS-CoV Urbani,[1],0.2
same,Binding of serum SARS-green to linear peptides of protein X4 of SARS-CoV Urbani,[1],0.5
same,Binding of serum SARS-green to looped/cyclic peptides of protein X4 of SARS-CoV Urbani,[1],0.5
same,Binding of serum SARS-yellow to linear peptides of protein X4 of SARS-CoV Urbani,[1],0.2
same,Binding of serum SARS-yellow to looped/cyclic peptides of protein X4 of SARS-CoV Urbani,[1],0.6
same,Rabbit serum linear peptides,[2],0.4
same,Rabbit serum looped peptides,[2],0.5
same,Binding of Control Serum Blood-Bank to Looped peptides,[3],0.7
same,Binding of Control serum Blood-bank to linear peptides,[3],0.5
same,Binding of Control serum LUMC to linear peptides,[3],0.3
same,Binding of Control serum LUMC to looped peptides,[3],0.7
